From patent US20230382924A1, “MODULATORS OF CYSTIC FIBROSIS TRANSMEMBRANE CONDUCTANCE REGULATOR” (VERTEX PHARMACEUTICALS INCORPORATED, priority 2020, published 2023)
pEC50: −log10 of the molar value. Read-outs that look alike come from different tables or passages of the source.

Biological target: CFTR (Homo sapiens, UniProt P13569)
Test: Membrane Potential Dye, Enteroid Assay A
Format: cell-based
Details: for pEC50: read-out: Ent. A EC50
How it was run: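 Signal is reported as % Activity relative to a triple CFTR modulator control (3 μM + 3 μM + 300 nM acute). Read-out: membrane potential fluorescence (20 μM methyl oxonol) monitored for 15 min after chloride-free stimulation. Dye loading took 25 min at room temperature in Bath 1 buffer containing CaCC blockers.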

CFTR, sequence (P13569 with tags, fused parts or gaps DEL508-508): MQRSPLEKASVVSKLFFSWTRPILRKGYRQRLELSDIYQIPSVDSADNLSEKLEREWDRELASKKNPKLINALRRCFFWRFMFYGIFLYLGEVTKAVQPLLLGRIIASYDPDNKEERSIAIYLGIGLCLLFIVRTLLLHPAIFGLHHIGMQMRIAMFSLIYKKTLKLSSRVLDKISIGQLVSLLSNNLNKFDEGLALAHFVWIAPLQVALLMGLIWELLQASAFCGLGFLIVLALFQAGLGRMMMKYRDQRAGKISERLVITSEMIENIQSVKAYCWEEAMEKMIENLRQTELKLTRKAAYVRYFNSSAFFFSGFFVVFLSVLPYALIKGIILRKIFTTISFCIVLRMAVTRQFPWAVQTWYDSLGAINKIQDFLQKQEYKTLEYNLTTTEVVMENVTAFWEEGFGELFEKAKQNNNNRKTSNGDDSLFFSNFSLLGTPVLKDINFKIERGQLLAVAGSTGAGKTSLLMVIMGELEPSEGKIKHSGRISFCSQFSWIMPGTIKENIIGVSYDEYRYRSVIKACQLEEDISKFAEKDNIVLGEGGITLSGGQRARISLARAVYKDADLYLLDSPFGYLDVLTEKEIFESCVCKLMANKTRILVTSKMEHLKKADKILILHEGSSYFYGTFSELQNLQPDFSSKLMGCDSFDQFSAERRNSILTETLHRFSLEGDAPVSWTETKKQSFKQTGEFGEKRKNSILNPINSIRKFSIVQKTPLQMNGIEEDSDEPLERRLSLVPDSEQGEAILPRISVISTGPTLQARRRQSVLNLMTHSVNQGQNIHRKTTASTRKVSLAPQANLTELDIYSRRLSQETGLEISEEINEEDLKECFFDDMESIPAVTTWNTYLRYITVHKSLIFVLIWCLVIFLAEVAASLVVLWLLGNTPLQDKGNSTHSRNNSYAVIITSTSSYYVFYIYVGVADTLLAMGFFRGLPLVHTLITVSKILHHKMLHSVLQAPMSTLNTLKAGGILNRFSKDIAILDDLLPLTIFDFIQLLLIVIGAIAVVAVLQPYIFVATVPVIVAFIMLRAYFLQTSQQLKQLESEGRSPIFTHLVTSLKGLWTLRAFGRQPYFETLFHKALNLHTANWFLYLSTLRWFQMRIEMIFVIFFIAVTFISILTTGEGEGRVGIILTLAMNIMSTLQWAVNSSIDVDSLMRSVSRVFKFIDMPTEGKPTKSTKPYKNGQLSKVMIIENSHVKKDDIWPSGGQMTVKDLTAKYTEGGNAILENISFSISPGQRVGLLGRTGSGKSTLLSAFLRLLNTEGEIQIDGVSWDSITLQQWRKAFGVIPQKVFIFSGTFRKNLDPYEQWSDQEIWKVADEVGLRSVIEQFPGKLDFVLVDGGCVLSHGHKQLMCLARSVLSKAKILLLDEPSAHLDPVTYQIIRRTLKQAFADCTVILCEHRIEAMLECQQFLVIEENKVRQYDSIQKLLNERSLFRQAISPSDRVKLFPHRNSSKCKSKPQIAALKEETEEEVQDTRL

| Ent. A Max Activity (Table 9) | pEC50 (Enteroid Assay A) | pEC50 (Table 9) | SMILES | further results |
| --- | --- | --- | --- | --- |
| + (+ is <30%) |  |  | Cc1cccc(C)c1-c1cc2nc(n1)NS(=O)(=O)c1cccc(c1)C(=O)N[C@@H]1CCN(CCC(C)(C)C)C[C@H]1O2 (single isomer, unassigned) [Compound 89, 5-(3,3-Dimethylbutyl)-20-(2,6-dimethylphenyl)-2-oxa-16λ^6-thia-5,9,17,19,22-pentaazatetracyclo[16.3.1.111,15.03,8]tricosa-1(21),11(23),12,14,18(22),19-hexaene-10,16,16-trione] |  |
|  | 4.52 to 5.52 |  | CC(C)C[C@@H]1COc2cc(C3=CCCC3)nc(n2)NS(=O)(=O)c2cccc(c2)C(=O)N1 [Compound 321] |  |
|  | 4.52 to 5.52 |  | CC(C)C[C@@H]1COc2cc(-c3cc(C(F)(F)F)nn3C)nc(n2)NS(=O)(=O)c2cccc(c2)C(=O)N1 [Compound 338] |  |
| +++ (+++ is >60%) |  | 5.52 to 6.00 | Cc1cccc(C)c1-c1cc2nc(n1)NS(=O)(=O)c1cccc(c1)C(=O)N[C@H]1CCN(CCC(C)(C)C)C[C@H]1O2 (single isomer, unassigned) [Compound 90, 5-(3,3-dimethylbutyl)-20-(2,6-dimethylphenyl)-2-oxa-16λ^6-thia-5,9,17,19,22-pentaazatetracyclo[16.3.1.111,15.03,8]tricosa-1(21),11(23),12,14,18(22),19-hexaene-10,16,16-trione] |  |
| +++ (+++ is >60%) |  | 5.52 to 6.00 | Cc1cccc(C)c1-c1cc2nc(n1)NS(=O)(=O)c1cccc(c1)C(=O)N[C@@H]1CCN(C(=O)OC(C)(C)C)C[C@H]1O2 (single isomer, unassigned) [Compound 87, tert-butyl 20-(2,6-dimethylphenyl)-10,16,16-trioxo-2-oxa-16λ^6-thia-5,9,17,19,22-pentaazatetracyclo[16.3.1.111,15.03,8]tricosa-1(21),11(23),12,14,18(22),19-hexaene-5-carboxylate] |  |
| +++ (+++ is >60%) |  | > 6.00 | CCC(CC)(CC)c1ccc([C@@H]2CNC(=O)c3cccc(c3)S(=O)(=O)Nc3nc(cc(-c4c(C)cccc4C)n3)O2)cc1 [Compound 258] |  |
|  |  |  | Cc1cccc(C)c1-c1cc2nc(n1)NS(=O)(=O)c1cccc(c1)C(=O)NC[C@@H](c1ccc(C(C)(F)F)cc1)O2 (stereo in doubt) [Compound 400] | Ent. A Max Activity (Table 8): + (+ is <30%); pEC50 (Table 8): 5.52 to 6.00 |
| +++ (+++ is >60%) |  | 5.52 to 6.00 | CCC(C)(C)C(=O)N1CC[C@H]2Oc3cc(-c4c(C)cccc4C)nc(n3)NS(=O)(=O)c3cccc(c3)C(=O)N[C@@H]2C1 [Compound 370] |  |
|  | > 6.00 |  | Cc1cccc(C)c1-c1cc2nc(n1)NS(=O)(=O)c1cccc(c1)C(=O)NC1CC(CN(CCC(C)(C)C3CC3)C1)O2 (stereo not drawn) [Compound 195] |  |
|  |  |  | CC(C)C[C@@H]1COc2cc(C3C(C)CCCC3C)nc(n2)NS(=O)(=O)c2cccc(c2)C(=O)N1 (stereo partly drawn) [Compound 300] | pEC50 (Table 8): > 6.00 |
| + (+ is <30%) |  |  | Cc1cccc(C)c1-c1cc2nc(n1)NS(=O)(=O)[C@H]1CC[C@H]1C(=O)N[C@H](CC(C)C)CO2 (single isomer, unassigned) [Compound 72] |  |
|  |  |  | Cc1cccc(C)c1-c1cc2nc(n1)NS(=O)(=O)c1cccc(c1)C(=O)NCC1(CCN(C(=O)C3CSCCN3C(=O)OC(C)(C)C)CC1)CO2 (stereo not drawn) [Compound 471] | Ent. A Max Activity (Enteroid Assay A): ++ (++ is 30-60%) |
|  | 5.52 to 6.00 |  | Cc1cccc(C)c1-c1cc2nc(n1)NS(=O)(=O)c1cccc(c1)C(=O)NCC1(CCN(C(=O)[C@H]3[C@H](c4ccccc4)C3(C)C)CC1)CO2 [Compound 465] | Ent. A Max Activity (Enteroid Assay A): ++ (++ is 30-60%) |
|  |  |  | Cc1cccc(C)c1-c1cc2nc(n1)NS(=O)(=O)c1cccc(c1)C(=O)N[C@H](CC(C)C)[C@H](C)O2 [Compound 235] | Ent. A Max Activity (Table 8): +++ (+++ is >60%); pEC50 (Table 8): > 6.00 |
|  |  |  | Cc1cc(C(F)(F)F)n(-c2cc3nc(n2)NS(=O)(=O)c2cccc(c2)C(=O)N[C@H](CC(C)C)CO3)n1 [Compound 109, (11R)-6-[3-methyl-5-(trifluoromethyl)-1H-pyrazol-1-yl]-11-(2-methylpropyl)-9-oxa-2λ^6-thia-3,5,12,19-tetraazatricyclo[12.3.1.14,8]nonadeca-1(17),4,6,8(19),14(18),15-hexaene-2,2,13-trione] | Ent. A Max Activity (Table 8): + (+ is <30%); pEC50 (Table 8): > 6.00 |
|  | > 6.00 |  | Cc1ccccc1[C@@H]1Oc2cc(-c3c(C)cccc3C)nc(n2)NS(=O)(=O)c2cccc(c2)C(=O)N[C@@H]1CC(C)C [Compound 162] |  |
| + (+ is <30%) |  | > 6.00 | Cc1cccc(C)c1-c1cc2nc(n1)NS(=O)(=O)c1cccc(c1)C(=O)N[C@@H](C)[C@H](c1ccc(C(C)(C)C)cc1)O2 [Compound 228] |  |
|  | 5.52 to 6.00 |  | CC(C)C[C@@H]1COc2cc(C3=CCC(C)CC3)nc(n2)NS(=O)(=O)c2cccc(c2)C(=O)N1 (stereo partly drawn) [Compound 324] | Ent. A Max Activity (Enteroid Assay A): ++ (++ is 30-60%) |
|  | > 6.00 |  | CC(C)CCc1ccccc1-c1cc2nc(n1)NS(=O)(=O)c1cccc(c1)C(=O)N[C@H](CC(C)C)CO2 [Compound 104, (11R)-6-[2-(3-Methylbutyl)phenyl]-11-(2-methylpropyl)-9-oxa-2λ^6-thia-3,5,12,19-tetraazatricyclo[12.3.1.14,8]nonadeca-1(17),4,6,8(19),14(18),15-hexaene-2,2,13-trione] | Ent. A Max Activity (Enteroid Assay A): ++ (++ is 30-60%) |
| +++ (+++ is >60%) |  | > 6.00 | Cc1cccc(C)c1-c1cc2nc(n1)NS(=O)(=O)c1cccc(c1)C(=O)N[C@@H]1CN(CCC3(C(F)(F)F)CC3)CC[C@H]1O2 [Compound 58, (3R,8R)-20-(2,6-Dimethylphenyl)-6-{2-[1-(trifluoromethyl)cyclopropyl]ethyl}-2-oxa-16λ^6-thia-6,9,17,19,22-pentaazatetracyclo[16.3.1.111,15.03,8]tricosa-1(21),11,13,15(23),18(22),19-hexaene-10,16,16-trione] |  |
|  | 5.52 to 6.00 |  | Cc1cccc(C)c1-c1cc2nc(n1)NS(=O)(=O)c1cccc(c1)C(=O)NCC1(CCN(C(=O)c3c(C)c4ccccc4n3C)CC1)CO2 [Compound 455] | Ent. A Max Activity (Enteroid Assay A): ++ (++ is 30-60%) |
| +++ (+++ is >60%) |  | 5.52 to 6.00 | Cc1cccc(C)c1-c1cc2nc(n1)NS(=O)(=O)c1cccc(c1)C(=O)N[C@@H]1CN(C(C)C)CC[C@H]1O2 [Compound 373] |  |
|  | > 6.00 |  | CC(C)C[C@@H]1COc2cc(-c3ccccc3CC(C)(C)C)nc(n2)NS(=O)(=O)c2cccc(c2)C(=O)N1 [Compound 332] | Ent. A Max Activity (Enteroid Assay A): ++ (++ is 30-60%) |
|  | 5.52 to 6.00 |  | COc1cccc(-c2cccc(C(=O)N3CCC4(CC3)CNC(=O)c3cccc(c3)S(=O)(=O)Nc3nc(cc(-c5c(C)cccc5C)n3)OC4)c2)c1 [Compound 459] | Ent. A Max Activity (Enteroid Assay A): ++ (++ is 30-60%) |

| SMILES | Ent. A Max Activity (Table 9) | pEC50 (Enteroid Assay A) | pEC50 (Table 9) | further results |
| --- | --- | --- | --- | --- |
| Cc1cccc(C)c1-c1cc2nc(n1)NS(=O)(=O)c1cccc(c1)C(=O)NCC(c1ccc([Si](C)(C)C)cc1)O2 (stereo not drawn) [Compound 15, 6-(2,6-Dimethylphenyl)-2,2-dioxo-10-(4-trimethylsilylphenyl)-9-oxa-2λ^6-thia-3,5,12,19-tetrazatricyclo[12.3.1.14,8]nonadeca-1(18),4(19),5,7,14,16-hexaen-13-one] |  |  | > 6.00 |  |
| Cc1cccc(C)c1-c1cc2nc(n1)NS(=O)(=O)c1cccc(c1)C(=O)NCC(c1ccc([Si](C)(C)C)cc1)O2 (single isomer, unassigned) [Compound 16, 6-(2,6-Dimethylphenyl)-2,2-dioxo-10-(4-trimethylsilylphenyl)-9-oxa-2λ^6-thia-3,5,12,19-tetrazatricyclo[12.3.1.14,8]nonadeca-1(18),4(19),5,7,14,16-hexaen-13-one] |  |  | > 6.00 |  |
